Experimental data as given in patent publication US20260193268A1, “TRICYCLIC PI3Ka INHIBITOR, PREPARATION METHOD THEREFOR, AND PHARMACEUTICAL USE THEREOF” (WIGEN BIOMEDICINE TECHNOLOGY (SHANGHAI) CO., LTD., priority 2022, published 2026).
Read-outs that look alike come from different tables or passages of the source.

How the values were obtained:
[1] = test system: HCC1954 cells (with PI3Kα H1047R mutation); experiment: In vitro inhibition of HCC1954 cell proliferation (CellTiter-Lumi); type: cell-based; details: Homo sapiens, HCC1954, 144 h, HCC1954 cells, 144 h, CellTiter-Lumi
Description: Assay for In Vitro Inhibition of HCC1954 Cell Proliferation by Compounds of the Present Disclosure
The growth of the cells was evaluated, and the IC50 for the inhibition of cell growth by the compounds was calculated.

[2] = test system: MCF-7 cells (with PI3Kα E545K mutation); experiment: In vitro inhibition of MCF-7 cell proliferation (CellTiter-Lumi); type: cell-based; details: Homo sapiens, MCF7, 144 h
Procedure, shortened: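 Growth IC50 derived from ATP luminescence (CellTiter-Lumi) after 144 h exposure of MCF-7 cells carrying PI3Kα E545K, plated 2000 cells/well and dosed with serial dilutions one day after seeding.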

[3] = numeric values, read-out: Inhibitory activity against HCC1954 cells (IC50)
[4] = numeric values, read-out: Inhibitory activity against MCF-7 cells (IC50)
[5] = class symbols, read-out: Inhibitory activity against HCC1954 cells (IC50), class symbols
[6] = class symbols, read-out: Inhibitory activity against MCF-7 cells (IC50), class symbols

Structure (SMILES) | IC50 [1, 3] [nM] | IC50 [2, 4] [nM] | IC50 [1, 5] [nM] | IC50 [2, 6] [nM]
CC(C)(C=C(C#N)C(=O)Nc1ccc(N2CC(N3CCN(c4ccc5c(c4)-c4nc(N6C(=O)OC[C@H]6C(F)F)cn4CCO5)CC3)C2)cc1)N1CCC1 [Compound 171] | 14 | 4.5 |  | 
CNC(C)(C)C=C(C#N)C(=O)Nc1ccc(N2CC(N3CCN(c4ccc5c(c4)-c4nc(-c6nc(C)nn6C(C)C)cn4CCO5)CC3)C2)cc1 [Compound 337] |  |  | < 50 | < 50
CNC1(C=C(C#N)C(=O)Nc2cnc(N3CC(N4CCN(c5ccc6c(c5)-c5nc(N7C(=O)OC[C@H]7C(F)F)cn5CCO6)CC4)C3)nc2)CC1 [Compound 273] |  |  | < 50 | < 50
Cc1nc(-c2cn3c(n2)-c2cc(N4CCN(C5CN(c6ccc(NC(=O)C(C#N)=CC(C)(C)C)cc6Cl)C5)CC4)ccc2OCC3)n(C(C)C)n1 [Compound 369] |  |  | < 50 | < 50
CC1CC1C=C(C#N)C(=O)Nc1ccc(N2CC(N3CCN(c4ccc5c(c4)-c4nc(N6C(=O)OC[C@H]6C(F)F)cn4CCO5)CC3)C2)cc1 (stereo partly shown) [Compound 284] |  |  | < 50 | < 50
C=CC(=O)Nc1ccc(N2CC(N3CCN(c4cc5c(cc4OC)OCCn4cc(N6C(=O)OC[C@H]6C(F)F)nc4-5)CC3)C2)cc1 [Compound 98] | 59 | 6.7 |  | 
C=CC(=O)Nc1ccc(CN2CC(N3CCN(c4ccc5c(c4)-c4nc(N6C(=O)OC[C@H]6C(F)F)cn4CCO5)CC3)C2)cc1 [Compound 39] | 68 | 11 |  | 
C=CC(=O)Nc1ccc(N2CC(N3CCN(c4ccc5c(c4)-c4nc(N6C(=O)SC[C@H]6C(F)F)cn4CCO5)CC3)C2)cc1 [Compound 106] | 6 | 0.14 |  | 
CC(C)C=C(C#N)C(=O)Nc1cnc(N2CC(N3CCN(c4ccc5c(c4)-c4nc(N6C(=O)OC[C@H]6C(F)F)cn4CCO5)CC3)C2)nc1 [Compound 262] |  |  | < 50 | < 50
COC(=O)N1CCN(C(C)(C)C=C(C#N)C(=O)Nc2ccc(N3CC(N4CCN(c5ccc6c(c5)-c5nc(N7C(=O)OC[C@H]7C(F)F)cn5CCO6)CC4)C3)cc2)CC1 [Compound 311] |  |  | < 50 | < 50
C=CC(=O)Nc1ccc(N2CC(N3CCN(c4ccc5c(c4)-c4nc(N6C(=O)CC[C@H]6C(F)F)cn4CCO5)CC3)C2)cc1 [Compound 178] |  |  | < 50 | < 50
COc1cc2c(cc1N1CCN(C3CN(c4ccc(NC(=O)C(C#N)=CC(C)(C)C)cc4)C3)CC1)-c1nc(N3C(=O)OC[C@H]3C(F)F)cn1CCO2 [Compound 318] |  |  | < 50 | < 50
CC=C(C#N)C(=O)Nc1cnc(N2CC(N3CCN(c4ccc5c(c4)-c4nc(N6C(=O)OC[C@H]6C(F)F)cn4CCO5)CC3)C2)nc1 [Compound 272] |  |  | < 50 | < 50
Cc1nc(-c2cn3c(n2)-c2cc(N4CCN(C5CN(c6ccc(NC(=O)C(C#N)=CC(C)(C)C)cc6F)C5)CC4)ccc2OCC3)n(C(C)C)n1 [Compound 367] |  |  | < 50 | < 50
C=CC(=O)Nc1ccc(N2CC(N3CCN(c4ccc5c(c4)-c4nc(N6C(=O)OC[C@H]6C(F)F)cn4CCO5)CC3)C2)cc1F [Compound 124] | 9 | 2.7 |  | 
C=CC(=O)Nc1ccc(N2CC(N3CCC(c4ccc5c(c4)-c4nc(N6C(=O)OC[C@H]6C(F)F)cn4CCO5)CC3)C2)cc1 [Compound 104] | 65 | 4.6 |  | 
C=CC(=O)Nc1ccc(N2CC(N3CC=C(c4ccc5c(c4)-c4nc(N6C(=O)OC[C@H]6C(F)F)cn4CCO5)CC3)C2)cc1 [Compound 103] | 23 | 2 |  | 
CC(C)(C=C(C#N)C(=O)Nc1ccc(N2CC(N3CCN(c4ccc5c(c4)-c4nc(N6C(=O)OC[C@H]6C(F)F)cn4CCO5)CC3)C2)cn1)NC1COC1 [Compound 290] |  |  | < 50 | < 50
CN(C)C/C=C/C(=O)Nc1ccc(N2CC(N3CCN(c4ccc5c(c4)-c4nc(N6C(=O)OC[C@H]6C(F)F)cn4CCO5)CC3)C2)nc1 [Compound 285] |  |  | < 50 | < 50
COC1(C=C(C#N)C(=O)Nc2ccc(N3CC(N4CCN(c5ccc6c(c5)-c5nc(N7C(=O)OC[C@H]7C(F)F)cn5CCO6)CC4)C3)cc2)CC1 [Compound 282] |  |  | < 50 | < 50
CC=C(C#N)C(=O)Nc1ccc(N2CC(N3CCN(c4ccc5c(c4)-c4nc(N6C(=O)OC[C@H]6C(F)F)cn4CCO5)CC3)C2)cc1 [Compound 187] |  |  | < 50 | < 50
CC(C)(N)C=C(C#N)C(=O)Nc1cnc(N2CC(N3CCN(c4ccc5c(c4)-c4nc(N6C(=O)OC[C@H]6C(F)F)cn4CCO5)CC3)C2)nc1 [Compound 260] |  |  | < 50 | < 50
C=CC(=O)N1CC(N2CC(CN3CCN(c4ccc5c(c4)-c4nc(N6C(=O)OC[C@H]6C(F)F)cn4CCO5)CC3)C2)C1 [Compound 60] | 174 | 13 |  | 
